According to patent US20250051290A1, “NOVEL COMPOUND FOR IMPROVING SLEEP OR USE THEREOF” (Ajou University Industry-Academic Cooperation Foundation, priority 2021, published 2025):

Biological target: T1, adenosine A1 receptor (Homo sapiens, UniProt P30542)
T1 construct: expressed in transfected cells; cells use mitochondrial aequorin
T1 sequence (P30542 1-326): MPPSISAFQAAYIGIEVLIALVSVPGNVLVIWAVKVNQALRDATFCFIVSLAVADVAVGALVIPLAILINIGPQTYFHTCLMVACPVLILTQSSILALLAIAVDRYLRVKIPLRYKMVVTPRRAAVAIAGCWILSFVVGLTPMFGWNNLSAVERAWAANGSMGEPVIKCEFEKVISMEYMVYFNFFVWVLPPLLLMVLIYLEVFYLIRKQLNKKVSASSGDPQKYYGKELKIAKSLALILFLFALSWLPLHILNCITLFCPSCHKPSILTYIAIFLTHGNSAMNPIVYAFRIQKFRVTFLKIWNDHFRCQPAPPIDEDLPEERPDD
Assay: Adenosine A1 receptor agonistic activity, aequorin calcium luminescence in A1-overexpressing cell line
Type: cell-based
Conditions: for activation at 10 µM: compound concentration 10 μM; for activation at 10 µM / activation at 50 µM: read-out: agonistic effect on A1 receptor, response relative to adenosine as 100%; for activation at 50 µM: compound concentration 50 μM
Description: The intracellular endoplasmic reticulum has the function of storing calcium ions and releasing them when necessary. It is responsible for managing and maintaining the overall physiological activities of the human body, such as contracting muscles and promoting hormone secretion by releasing calcium ions. This mechanism has been applied as a universal and accurate method to study the activity of G protein-coupled receptors (GPCRs), and the method of measuring calcium ions, which are the final measurement target, has been developed into various methods including fluorescent substances. The present inventors tried to use chemical luminescence through aequorin to evaluate the agonistic efficacy of the compounds subject to development. To this end, a cell line overexpressing an adenosine receptor (adenosine receptor subtype 1, A1), which targets calcium ions released from the intracellular endoplasmic reticulum, was used, and the concentration of calcium ions released instantaneously was measured using a cell function screening system based on the luminescence phenomenon through mitochondrial aequorin.
Cells into which an A1 receptor gene was inserted through transformation were washed with 10 ml of PBS after 48 hours of culture, and then the cells were isolated and centrifuged at 1,000×g for 5 minutes. The precipitated cells were treated with a basic buffer solution (Dulbecco's Modified Eagle's Medium (DMEM)/HAM's F12 without phenol red, with L-glutamate, 15 mM hydroxyethyl piperazine ethane sulfonic acid (HEPES), pH 7.0, 0.1% bovine serum albumin (BSA)), coelenterazine h was added to a concentration of 2×10^6 cells/ml, and then light was blocked. The cells were allowed to react with coelenterazine h using a rotator at room temperature. After four hours of reaction, the reaction mixture was diluted 10 times with a basic buffer solution to adjust the concentration to 2×10^5 cells/ml and allowed to stand for 60 minutes under the same conditions as before.
To confirm the agonistic activity of the novel compounds of the present invention, the previously prepared cells were plated in a 96-well black plate (Corning 3915) containing adenosine ([…]-4.57 nM) at 50 µl/well (5,000 cells/well), and then the resulting signal value was measured. To confirm the calcium signal changing activity (agonistic activity) of the compounds subject to development, the prepared cells were plated in a 96-well plate containing 50 μl/well of the compound sample at 50 μl/well and allowed to react for 30 minutes. Thereafter, 50 μl/well of adenosine (3 μM) was injected to confirm the reaction. The light emitted due to cell activity was measured and recorded using a Mithras 960 MultiLabel Reader. The measured value (area under the curve (AUC) integrated signal) was expressed in relative light units (RLU). To ensure the accuracy of the experimental data, the experiment was performed at at least two concentrations ([…] and 50 μM) with three samples of the same compound, and EC50 values calculated when necessary were compared and analyzed with the values obtained through at least three experiments.
As a result, the results shown in Table 1 below and FIG. 5 were obtained. Each value was obtained by assuming the response of […] adenosine as 100% and converting the ratio into percentage. The greater the value, the greater the agonistic effect.

Compound	activation at 10 µM [%]	activation at 50 µM [%]	EC50 (dose-response, FIG. 5) [µM]
CC(Nc1nc(NCc2ccc3c(c2)OCO3)nc2ccccc12)c1ccccc1 (stereo not drawn) [AR-013, N^2-(benzo[d][1,3]dioxol-5-ylmethyl)-N^4-(1-phenylethyl)quinazoline-2,4-diamine]	0.8	-0.4	
c1coc(CNc2nc(NCc3ccco3)c3ccccc3n2)c1 [AR-005, N^2,N^4-bis(furan-2-ylmethyl)quinazoline-2,4-diamine]	0.2	251	
CN(C)c1nc(NC2CC2)nc2ccccc12 [AR-009, N^2-cyclopropyl-N^4,N^4-dimethylquinazoline-2,4-diamine]	-1.2	14.6	
c1coc(CNc2nc(NC3CC3)nc3ccccc23)c1 [AR-006, N^2-cyclopropyl-N^4-(furan-2-ylmethyl)quinazoline-2,4-diamine]	170	289	6.95
c1ccc2c(N3CCCC3)nc(NC3CC3)nc2c1 [AR-016, N-cyclopropyl-4-(pyrrolidin-1-yl)quinazolin-2-amine]	3.7	101	
COc1cc2nc(NCc3ccco3)nc(N(C)C)c2cc1OC [AR-019, N^2-(furan-2-ylmethyl)-6,7-dimethoxy-N^4,N^4-dimethylquinazoline-2,4-diamine]	-0.3	0	
c1ccc2c(N3CCCC3)nc(N3CCCC3)nc2c1 [AR-021, 2,4-di(pyrrolidin-1-yl)quinazoline]	1.8	0.1	
CCNc1nc(N2CCCC2)c2cc(O)c(O)cc2n1 [AR-027, 2-(Ethylamino)-4-(pyrrolidin-1-yl)quinazoline-6,7-diol]	0.2	1.1	
CCNc1nc(N2CCCC2)c2ccccc2n1 [AR-014, N-ethyl-4-(pyrrolidin-1-yl)quinazolin-2-amine]	-0.9	25.1	
CCNc1nc(NCc2ccco2)c2ccccc2n1 [AR-001, N^2-ethyl-N^4-(furan-2-ylmethyl)quinazoline-2,4-diamine]	23.7	246	
CN(C)c1nc(NCc2ccco2)nc2ccccc12 [AR-002, N^2-(furan-2-ylmethyl)-N^4,N^4-dimethylquinazoline-2,4-diamine]	-1.5	1.3	
CCNc1nc(N(C)C)c2ccccc2n1 [AR-008, N^2-ethyl-N^4,N^4-dimethylquinazoline-2,4-diamine]	0.4	2.6	
Oc1cc2nc(NC3CC3)nc(N3CCCC3)c2cc1O [AR-025, 2-(Cyclopropylamino)-4-(pyrrolidin-1-yl)quinazoline-6,7-diol]	-1.6	0.4	
CN(C)c1nc(NCc2ccc3c(c2)OCO3)nc2ccccc12 [AR-010, N^2-(benzo[d][1,3]dioxol-5-ylmethyl)-N^4,N^4-dimethylquinazoline-2,4-diamine]	2.1	240	
CN(C)c1nc(NCc2ccco2)nc2cc(O)c(O)cc12 [AR-026, 4-(Dimethylamino)-2-((furan-2-ylmethyl)amino)quinazoline-6,7-diol]	-0.6	0	
CCNc1nc(NCc2ccco2)c2cc(OC)c(OC)cc2n1 [AR-018, N^2-ethyl-N^4-(furan-2-ylmethyl)-6,7-dimethoxyquinazoline-2,4-diamine]	1	0	
CCNc1nc(N2CCCC2)c2cc(OC)c(OC)cc2n1 [AR-020, N-ethyl-6,7-dimethoxy-4-(pyrrolidin-1-yl)quinazolin-2-amine]	0.3	-0.7	
COc1cc2nc(NC3CC3)nc(N3CCCC3)c2cc1OC [AR-017, N-cyclopropyl-6,7-dimethoxy-4-(pyrrolidin-1-yl)quinazolin-2-amine]	0.6	0.9	
CCNc1nc(NC(C)c2ccccc2)c2ccccc2n1 (stereo not drawn) [AR-011, N^2-ethyl-N^4-(1-phenylethyl)quinazoline-2,4-diamine]	-0.4	42.8	
O=C(NCCNc1nc(N2CCCC2)c2ccccc2n1)c1ccc(O)c(O)c1 [AR-024, 3,4-Dihydroxy-N-(2-((4-(pyrrolidin-1-yl)quinazolin-2-yl)amino)ethyl)benzamide]	-0.7	0.1	
CC(Nc1nc(NC2CC2)nc2ccccc12)c1ccccc1 (stereo not drawn) [AR-003, N^2-cyclopropyl-N^4-(1-phenylethyl)quinazoline-2,4-diamine]	-1.1	3.9	
CC(Nc1nc(NCc2ccco2)nc2ccccc12)c1ccccc1 (stereo not drawn) [AR-012, N^2-(furan-2-ylmethyl)-N^4-(1-phenylethyl)quinazoline-2,4-diamine]	-0.6	6.4	
CN(C)c1nc(N2CCCC2)c2ccccc2n1 [AR-022, N,N-dimethyl-4-(pyrrolidin-1-yl)quinazolin-2-amine]	-0.5	0	
c1coc(CNc2nc(NCc3ccc4c(c3)OCO4)nc3ccccc23)c1 [AR-007, N^2-(benzo[d][1,3]dioxol-5-ylmethyl)-N^4-(furan-2-ylmethyl)quinazoline-2,4-diamine]	-1.1	12	
c1coc(CNc2nc(N3CCCC3)c3ccccc3n2)c1 [AR-015, N-(furan-2-ylmethyl)-4-(pyrrolidin-1-yl)quinazolin-2-amine]	28.6	219	
CCNc1nc(NCc2ccco2)c2cc(O)c(O)cc2n1 [AR-028, 2-(Ethylamino)-4-((furan-2-ylmethyl)amino)quinazoline-6,7-diol]	-0.3	-1.1	
CC(Nc1nc(N2CCCC2)c2ccccc2n1)c1ccccc1 (stereo not drawn) [AR-023, N-(1-phenylethyl)-4-(pyrrolidin-1-yl)quinazolin-2-amine]	1.7	47.8	
c1ccc2c(N3CCCC3)nc(NCc3ccc4c(c3)OCO4)nc2c1 [AR-004, N-(benzo[d][1,3]dioxol-5-ylmethyl)-4-(pyrrolidin-1-yl)quinazolin-2-amine]	-0.7	-0.8	
